Laboratory results: patent US9868742B2, “Substituted imidazo[1,2-b]pyridazines, substituted imidazo[1,5-b] pyridazines, related compounds, and their use in the treatment of medical disorders” (Lysosomal Therapeutics Inc., priority 2016, dated 2018)

Target: T1, glucocerebrosidase (Gcase) (Homo sapiens, UniProt P04062)
T1 sequence (P04062 40-536): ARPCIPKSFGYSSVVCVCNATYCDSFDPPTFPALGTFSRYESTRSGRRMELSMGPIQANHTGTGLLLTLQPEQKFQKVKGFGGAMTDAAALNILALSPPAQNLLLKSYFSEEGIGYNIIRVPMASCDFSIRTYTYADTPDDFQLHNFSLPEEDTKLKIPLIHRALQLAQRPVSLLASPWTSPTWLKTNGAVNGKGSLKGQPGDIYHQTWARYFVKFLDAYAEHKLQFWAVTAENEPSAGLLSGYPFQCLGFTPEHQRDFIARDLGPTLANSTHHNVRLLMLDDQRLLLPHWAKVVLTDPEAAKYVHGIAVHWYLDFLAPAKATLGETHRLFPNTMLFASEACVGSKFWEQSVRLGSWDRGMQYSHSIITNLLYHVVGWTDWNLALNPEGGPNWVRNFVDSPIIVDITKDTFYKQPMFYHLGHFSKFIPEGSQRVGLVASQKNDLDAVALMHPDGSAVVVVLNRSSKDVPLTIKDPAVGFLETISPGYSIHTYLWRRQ
Assay: Glucocerebrosidase (Gcase) activation assay, 4-methylumbelliferyl-beta-D-glucopyranoside substrate with saposin C
Format: biochemical
Conditions: 10 nM GCase, 100 nM saposin C, pH 4.7
Procedure: The ability of exemplary compounds to activate glucocerebrosidase (Gcase) was measured.
A 484 μL aliquot of a 1.0 mg/mL solution of phosphatidylserine (PS) (Sigma P7769) in chloroform was evaporated under a stream of nitrogen for 1 hour. The lipid film was dissolved over 4 minutes of vigorous vortexing in 40 mL of 176 mM K2HPO4/50 mM citric acid (pH 4.7) containing 7.5 μL of triton X-100, resulting in a mixed micellar preparation with a composition of 0.32 mM triton and 0.37 mol % PS. 4-Methylumbelliferyl-beta-D-glucopyranoside (ACROS-337025000) was dissolved in the micellar solution to a final concentration of 2 mM for use as the reaction substrate.
Test compounds were diluted to the desired concentrations with dimethylsulfoxide (DMSO) from 10 mM stocks, and 0.41 μL of the DMSO compound mixture was added to 100 μL of micellar solution containing 10 nM GCase and 100 nM saposin C (Enzo ALX-201-262-C050). Pre-incubation was allowed to occur for 30 minutes at room temperature, after which the reaction was initiated by combining 25 μL of substrate solution with 25 μL of compound/GCase/saposin mixture. The reaction proceeded for 15 minutes at room temperature and was stopped by adding 150 μL of 1M glycine, pH 12.5. The endpoint of the reaction was monitored by measuring fluorescence intensity (excitation: 365 nm; emission: 440 nm) on a SpectraMax i3 instrument (Molecular Devices). […]

activation at 0.1 µM (0.1 μM test compound, read-out: Percent Gease Activation 0.1 μM Test Compound): 5 to 20%
activation at 1 µM (1 μM test compound, read-out: Percent Gease Activation 1 μM Test Compound): > 20%
Compound: CCCCCOC1CCC(NC(=O)c2ncc3c(C)cc(C)nn23)CC1 (centres unmarked)
